The results in this text go back to patent US12509431B2, “1,4-dihydroquinazolinone compounds and uses thereof” (Edgewise Therapeutics, Inc., priority 2022, dated 2025).

What all share (type): biochemical
The test system of experiment [1] is Rabbit Skeletal myofibrils (rabbit psoas muscle). The experiment in a line: Myofibril ATPase assay (PK/LDH NADH-coupled), skeletal myofibrils. The method, boiled down:
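ATPase rate taken as linear-regression slope of A340 (NADH depletion through PK/LDH coupling) over a 75 min kinetic read, with psoas-derived rabbit skeletal myofibrils at pH 7.0. Four-parameter fits of vehicle-normalized activity give EC25 and, where reached, EC50.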

In experiment [2] the target is T1, Porcine Ventricle myofibrils (left ventricle of Yucatan minipigs) (Sus scrofa, UniProt P79293).
T1 construct: Myofibrils from porcine cardiac muscle was isolated from the left ventricle of Yucatan minipigs; tissue Exemplar Genetics; host or cells: left ventricle of Yucatan minipigs
Briefly: Myofibril ATPase assay (PK/LDH NADH-coupled), ventricle myofibrils. In outline:
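NADH depletion (A340) coupled through pyruvate kinase/lactate dehydrogenase reports ATPase rate of porcine left-ventricle myofibrils over 75 min kinetic reads. Regression slopes, vehicle-normalized, fitted by 4-parameter logistic give EC25 and, where available, EC50.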

For a further experiment, the system named is Porcine Atria myofibrils. Briefly: Myofibril ATPase assay (PK/LDH NADH-coupled), atria myofibrils. The method, boiled down:
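Values are EC25% (and, for inhibitors, EC50%) from 4-parameter logistic fits of activity normalized to vehicle wells. Rates came from linear regression of 340 nm kinetic reads (every 1.5-2 min, 75 min) of NADH-coupled ATP turnover by porcine atria myofibrils.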

The structures appear in SMILES notation.

T1 sequence (P79293 whole entry): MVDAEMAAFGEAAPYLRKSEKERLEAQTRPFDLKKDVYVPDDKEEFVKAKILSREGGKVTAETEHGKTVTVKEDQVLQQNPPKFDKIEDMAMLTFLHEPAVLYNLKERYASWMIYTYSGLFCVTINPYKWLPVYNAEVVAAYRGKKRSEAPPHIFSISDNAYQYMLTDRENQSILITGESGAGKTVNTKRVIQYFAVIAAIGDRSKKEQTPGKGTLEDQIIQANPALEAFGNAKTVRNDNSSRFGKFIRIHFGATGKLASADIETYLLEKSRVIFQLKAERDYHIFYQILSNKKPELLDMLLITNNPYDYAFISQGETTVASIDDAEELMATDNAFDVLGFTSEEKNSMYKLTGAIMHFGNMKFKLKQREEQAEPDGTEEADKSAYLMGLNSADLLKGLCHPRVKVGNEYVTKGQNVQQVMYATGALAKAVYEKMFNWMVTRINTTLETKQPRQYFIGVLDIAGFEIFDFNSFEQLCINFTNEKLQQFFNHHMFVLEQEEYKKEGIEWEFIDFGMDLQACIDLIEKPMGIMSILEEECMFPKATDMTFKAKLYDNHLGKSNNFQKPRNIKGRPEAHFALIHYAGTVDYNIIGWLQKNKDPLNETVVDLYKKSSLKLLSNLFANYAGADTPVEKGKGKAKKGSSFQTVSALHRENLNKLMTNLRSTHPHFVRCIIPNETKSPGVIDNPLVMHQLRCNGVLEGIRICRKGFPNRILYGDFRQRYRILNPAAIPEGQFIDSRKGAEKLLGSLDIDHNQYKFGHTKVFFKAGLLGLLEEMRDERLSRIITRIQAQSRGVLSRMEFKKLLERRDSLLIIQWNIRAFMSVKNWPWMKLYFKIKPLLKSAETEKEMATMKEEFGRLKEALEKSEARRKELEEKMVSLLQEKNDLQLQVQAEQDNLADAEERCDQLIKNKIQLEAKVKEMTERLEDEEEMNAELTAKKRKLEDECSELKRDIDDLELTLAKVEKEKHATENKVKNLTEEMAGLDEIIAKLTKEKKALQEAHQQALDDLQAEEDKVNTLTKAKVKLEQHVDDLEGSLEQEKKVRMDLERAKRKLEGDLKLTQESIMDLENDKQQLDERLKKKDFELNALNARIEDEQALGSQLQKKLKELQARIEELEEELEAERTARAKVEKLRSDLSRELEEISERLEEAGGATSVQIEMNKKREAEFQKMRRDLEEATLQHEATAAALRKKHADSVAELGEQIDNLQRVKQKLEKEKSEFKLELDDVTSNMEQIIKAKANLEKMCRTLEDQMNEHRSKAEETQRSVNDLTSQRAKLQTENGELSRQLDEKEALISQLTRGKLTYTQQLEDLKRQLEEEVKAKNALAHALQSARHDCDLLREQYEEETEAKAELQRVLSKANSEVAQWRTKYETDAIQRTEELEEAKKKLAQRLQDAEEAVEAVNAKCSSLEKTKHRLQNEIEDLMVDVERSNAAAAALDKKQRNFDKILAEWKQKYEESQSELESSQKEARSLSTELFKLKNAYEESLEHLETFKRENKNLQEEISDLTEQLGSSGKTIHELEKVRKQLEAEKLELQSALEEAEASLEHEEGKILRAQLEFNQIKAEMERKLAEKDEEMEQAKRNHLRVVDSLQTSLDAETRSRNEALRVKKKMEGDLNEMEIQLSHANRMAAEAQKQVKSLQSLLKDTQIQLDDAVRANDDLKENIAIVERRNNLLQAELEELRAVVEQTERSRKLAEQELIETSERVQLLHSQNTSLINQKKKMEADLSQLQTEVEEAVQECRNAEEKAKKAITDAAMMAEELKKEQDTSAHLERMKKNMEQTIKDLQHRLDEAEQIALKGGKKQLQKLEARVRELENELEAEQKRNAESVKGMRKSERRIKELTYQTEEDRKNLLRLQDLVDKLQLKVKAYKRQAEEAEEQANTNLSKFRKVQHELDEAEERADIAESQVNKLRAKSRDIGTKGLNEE

`CC(C)C[C@@H](C(=O)N[C@@H](C)c1ccc(F)cc1F)N1Cc2c(ccc(F)c2F)NC1=O` [Compound B60]: the “Rabbit Psoas IC25” value in experiment [1] (Table 8) was found to be 2.769 µM. Also, the “Porcine Ventricle IC25” value in experiment [2] (Table 8) came to 100 µM. The “Porcine Atria IC25” value with Porcine Atria myofibrils (Table 8) is 0.80 µM.

With `C[C@H](NC(=O)CN1C(=O)Nc2cccnc2C12CC2)c1ncc(F)cc1F` [Compound N48], the “Rabbit Psoas IC25” value in experiment [1] (Table 7) was 100 µM. In addition, in experiment [2] (Table 7), the “Porcine Ventricle IC25” value worked out at 100 µM. Further, the “Porcine Atria IC25” value in the experiment with Porcine Atria myofibrils (Table 7) was 100.00 µM.

Regarding `CCOc1nccc2c1CN(CC(=O)N[C@@H](C)c1ccc(F)cc1F)C(=O)N2` [Compound N121], the “Rabbit Psoas IC25” value in experiment [1] (Table 7) was found to be 0.0218 µM. In addition, in experiment [2] (Table 7), the “Porcine Ventricle IC25” value turned out to be 5.985 µM. For the same molecule, the “Porcine Atria IC25” value with Porcine Atria myofibrils (Table 7) is 0.51 µM.

In the case of `Cc1ncc2c(n1)CN(CC(=O)N[C@@H](C)c1ccc(F)cc1F)C(=O)N2` [Compound N91], the “Rabbit Psoas IC25” value in experiment [1] (Table 7) worked out at 17.09 µM. Further, the “Porcine Ventricle IC25” value in experiment [2] (Table 7) was 100 µM. The “Porcine Atria IC25” value in the experiment with Porcine Atria myofibrils (Table 7) stood at 56.88 µM.

`N#Cc1ccc([C@H](CO)NC(=O)CN2Cc3c(ccnc3C#N)NC2=O)c(F)c1` [Compound N32]: in experiment [1] (Table 7), the “Rabbit Psoas IC25” value was found to be 2.872 µM. In experiment [2] (Table 7), the “Porcine Ventricle IC25” value is 100 µM. Besides, the “Porcine Atria IC25” value in the experiment with Porcine Atria myofibrils (Table 7) is 100.00 µM.

With `C[C@H](NC(=O)CN1Cc2c(F)cc(Cl)cc2NC1=O)c1ccc(C#N)cc1F` [Compound B33, 2-(7-Chloro-5-fluoro-2-oxo-1,4-dihydroquinazolin-3-yl)-N-[(1S)-1-(4-cyano-2-fluorophenyl)ethyl]acetamide], the “Rabbit Psoas IC25” value in experiment [1] (Table 8) amounted to 0.0093 µM. Moreover, in experiment [2] (Table 8), the “Porcine Ventricle IC25” value amounted to 0.0667 µM. Further, the “Porcine Atria IC25” value in the experiment with Porcine Atria myofibrils (Table 8) was determined as 0.02 µM.

For the molecule `C[C@H](NC(=O)CN1Cc2c(ccnc2OC2CC2)NC1=O)c1ccc(F)cc1F` [Compound N116], the “Rabbit Psoas IC25” value in experiment [1] (Table 7) was 0.1914 µM. Also, the “Porcine Ventricle IC25” value in experiment [2] (Table 7) is 40.22 µM. Also, in the experiment on Porcine Atria myofibrils (Table 7), the “Porcine Atria IC25” value was 4.38 µM.

For `C[C@H](NC(=O)CN1Cc2c(ccnc2C#N)NC1=O)c1ncc(F)cc1F` [Compound N62], the “Rabbit Psoas IC25” value in experiment [1] (Table 7) turned out to be 0.1508 µM. In experiment [2] (Table 7), the “Porcine Ventricle IC25” value was found to be 5.161 µM. Also, the “Porcine Atria IC25” value with Porcine Atria myofibrils (Table 7) is 0.97 µM.

For the molecule `C[C@H](NC(=O)CN1Cc2nc(C(F)(F)F)ccc2NC1=O)c1ccc(F)cc1F` [Compound N112, N-[(1S)-1-(2,4-Difluorophenyl)ethyl]-2-[2-oxo-6-(trifluoromethyl)-1H,4H-pyrido[3,2-d]pyrimidin-3-yl]acetamide], the “Rabbit Psoas IC25” value in experiment [1] (Table 7) turned out to be 0.2968 µM. Moreover, the “Porcine Ventricle IC25” value in experiment [2] (Table 7) was 9.823 µM. Also, the “Porcine Atria IC25” value with Porcine Atria myofibrils (Table 7) stood at 0.23 µM.

As for `Cc1cccnc1[C@H](C)NC(=O)CN1Cc2cc(F)ccc2NC1=O` [Compound B193], the “Rabbit Psoas IC25” value in experiment [1] (Table 8) stood at 41.67 µM. Further, in experiment [2] (Table 8), the “Porcine Ventricle IC25” value amounted to 40.61 µM. In addition, the “Porcine Atria IC25” value in the experiment on Porcine Atria myofibrils (Table 8) is 28.17 µM.

Turning to `C[C@H](NC(=O)[C@@H](C)N1Cc2nc(F)ccc2NC1=O)c1ccccc1F` [Compound N93], the “Rabbit Psoas IC25” value in experiment [1] (Table 7) worked out at 100 µM. Further, the “Porcine Ventricle IC25” value in experiment [2] (Table 7) came to 100 µM. Moreover, the “Porcine Atria IC25” value in the experiment with Porcine Atria myofibrils (Table 7) stood at 1.66 µM.

With `C[C@H](NC(=O)CN1Cc2cnccc2NC1=O)c1ccc(Cl)cc1` [Compound N131], in experiment [1] (Table 7), the “Rabbit Psoas IC25” value stood at 8.051 µM. Besides, in experiment [2] (Table 7), the “Porcine Ventricle IC25” value was 100 µM. In addition, in the experiment on Porcine Atria myofibrils (Table 7), the “Porcine Atria IC25” value stood at 36.11 µM.

As for `CC(C)C[C@H](C(=O)N[C@H](C)c1ncc(F)cc1F)N1Cc2c(ccc(F)c2F)NC1=O` [Compound B51], in experiment [1] (Table 8), the “Rabbit Psoas IC25” value turned out to be 100 µM. The “Porcine Ventricle IC25” value in experiment [2] (Table 8) amounted to 100 µM. Also, in the experiment with Porcine Atria myofibrils (Table 8), the “Porcine Atria IC25” value was 49.07 µM.

For the molecule `C[C@H](NC(=O)[C@@H](C)N1Cc2c(ccnc2Cl)NC1=O)c1ccc(F)cc1F` [Compound N115], in experiment [1] (Table 7), the “Rabbit Psoas IC25” value is 0.0228 µM. Moreover, the “Porcine Ventricle IC25” value in experiment [2] (Table 7) is 0.7516 µM. Further, the “Porcine Atria IC25” value in the experiment on Porcine Atria myofibrils (Table 7) amounted to 0.51 µM.

`O=C(CN1C(=O)Nc2cccnc2C12CC2)N[C@H](CO)c1ccc(F)cc1F` [Compound N43]: the “Rabbit Psoas IC25” value in experiment [1] (Table 7) came to 100 µM. In addition, the “Porcine Ventricle IC25” value in experiment [2] (Table 7) was determined as 100 µM. Moreover, in the experiment with Porcine Atria myofibrils (Table 7), the “Porcine Atria IC25” value was 32.69 µM.
